Assay results taken from ChEMBL document CHEMBL1201862, “PubChem BioAssay data set” (2004).
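Compound exposure: 48 hours, 5 concentrations, 96-well plates. GI50 = concentration required for 50% inhibition of growth.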 Active and inactive are the calls of the source. Rule as the data show it: active = GI50 up to about 1.1 µM and inactive = higher.

Assays:
Experiment in all cases: inhibition of tumour cell growth, NCI panel, 48 h
786-0 = tested on: 786-0
A498 = tested on: A498
A549 = tested on: A549
ACHN = tested on: ACHN
BT-549 = tested on: BT-549
CAKI-1 = tested on: CAKI-1
CCRF-CEM = tested on: CCRF-CEM
COLO 205 = tested on: COLO 205
DU-145 = tested on: DU-145
EKVX = tested on: EKVX
HCC 2998 = tested on: HCC 2998
HCT-116 = tested on: HCT-116
HCT-15 = tested on: HCT-15
HOP-92 = tested on: HOP-92
HT-29 = tested on: HT-29
Hs-578T = tested on: Hs-578T
IGROV-1 = tested on: IGROV-1
K562 = tested on: K562
KM12 = tested on: KM12
LOX IMVI = tested on: LOX IMVI
M14 = tested on: M14
MCF7 = tested on: MCF7
MDA-MB-231 = tested on: MDA-MB-231
MDA-MB-435 = tested on: MDA-MB-435
MDA-N = tested on: MDA-N
MOLT-4 = tested on: MOLT-4
Malme-3M = tested on: Malme-3M
NCI-H226 = tested on: NCI-H226
NCI-H23 = tested on: NCI-H23
NCI-H460 = tested on: NCI-H460
NCI-H522 = tested on: NCI-H522
NCI/ADR-RES = tested on: NCI/ADR-RES
OVCAR-3 = tested on: OVCAR-3
OVCAR-4 = tested on: OVCAR-4
OVCAR-5 = tested on: OVCAR-5
OVCAR-8 = tested on: OVCAR-8
PC-3 = tested on: PC-3
RPMI-8226 = tested on: RPMI-8226
RXF 393 = tested on: RXF 393
SF-268 = tested on: SF-268
SF-295 = tested on: SF-295
SF-539 = tested on: SF-539
SK-MEL-2 = tested on: SK-MEL-2
SK-MEL-5 = tested on: SK-MEL-5
SK-OV-3 = tested on: SK-OV-3
SN12C = tested on: SN12C
SNB-19 = tested on: SNB-19
SR = tested on: SR
SW-620 = tested on: SW-620
T47D = tested on: T47D
TK-10 = tested on: TK-10
U-251 = tested on: U-251
UACC-257 = tested on: UACC-257
UACC-62 = tested on: UACC-62
UO-31 = tested on: UO-31
HOP-62 = tested on: HOP-62
SK-MEL-28 = tested on: SK-MEL-28
SNB-75 = tested on: SNB-75
HL-60 = tested on: HL-60

CC1=CC(=O)N(n2c(Cc3ccc(Cl)cc3)n[nH]c2=O)C1=O
GI50 (786-0): 60.5 µM (inactive) | GI50 (A498): 71.8 µM (inactive) | GI50 (A549): 77.6 µM (inactive) | GI50 (ACHN): 82 µM (inactive) | GI50 (BT-549): 35.3 µM (inactive) | GI50 (CAKI-1): 88.3 µM (inactive) | GI50 (CCRF-CEM): 7.91 µM (inactive) | GI50 (COLO 205): 71.3 µM (inactive) | GI50 (DU-145): > 100 µM (inactive) | GI50 (EKVX): 49 µM (inactive) | GI50 (HCC 2998): > 100 µM (inactive) | GI50 (HCT-116): 40.3 µM (inactive) | GI50 (HCT-15): 44.9 µM | GI50 (HOP-92): 21.1 µM (inactive) | GI50 (HT-29): 19.5 µM (inactive) | GI50 (Hs-578T): 35.4 µM (inactive) | GI50 (IGROV-1): 83.4 µM (inactive) | GI50 (K562): 23.3 µM (inactive) | GI50 (KM12): 52.4 µM (inactive) | GI50 (LOX IMVI): 27.6 µM (inactive) | GI50 (M14): 47.9 µM (inactive) | GI50 (MCF7): 30.5 µM (inactive) | GI50 (MDA-MB-231): 46.3 µM (inactive) | GI50 (MDA-MB-435): 38.2 µM (inactive) | GI50 (MDA-N): 44.7 µM (inactive) | GI50 (MOLT-4): 20.8 µM (inactive) | GI50 (Malme-3M): 94.2 µM (inactive) | GI50 (NCI-H226): > 100 µM (inactive) | GI50 (NCI-H23): 92.3 µM (inactive) | GI50 (NCI-H460): 36.1 µM (inactive) | GI50 (NCI-H522): 17.4 µM (inactive) | GI50 (NCI/ADR-RES): > 100 µM (inactive) | GI50 (OVCAR-3): 33.6 µM (inactive) | GI50 (OVCAR-4): 38.6 µM (inactive) | GI50 (OVCAR-5): > 100 µM (inactive) | GI50 (OVCAR-8): 55.5 µM (inactive) | GI50 (PC-3): 26.4 µM (inactive) | GI50 (RPMI-8226): 22.6 µM (inactive) | GI50 (RXF 393): 8.24 µM (inactive) | GI50 (SF-268): 70.1 µM (inactive) | GI50 (SF-295): 28.4 µM (inactive) | GI50 (SF-539): 39.1 µM (inactive) | GI50 (SK-MEL-2): > 100 µM (inactive) | GI50 (SK-MEL-5): 46 µM (inactive) | GI50 (SK-OV-3): > 100 µM (inactive) | GI50 (SN12C): 81.3 µM (inactive) | GI50 (SNB-19): 55.6 µM (inactive) | GI50 (SR): 15.9 µM (inactive) | GI50 (SW-620): 32.5 µM (inactive) | GI50 (T47D): 35.4 µM (inactive) | GI50 (TK-10): 98.9 µM (inactive) | GI50 (U-251): 27.2 µM (inactive) | GI50 (UACC-257): > 100 µM (inactive) | GI50 (UACC-62): 19.3 µM (inactive) | GI50 (UO-31): > 100 µM (inactive)

CCCC(=O)OCOC(=O)N(C)/N=N/c1ccc(C(=O)OCC)cc1
GI50 (786-0): 17.7 µM (inactive) | GI50 (A498): 29.2 µM (inactive) | GI50 (A549): 19.3 µM (inactive) | GI50 (ACHN): 17.5 µM (inactive) | GI50 (BT-549): 26.8 µM (inactive) | GI50 (CAKI-1): 43.8 µM (inactive) | GI50 (CCRF-CEM): 37.6 µM (inactive) | GI50 (COLO 205): 18.7 µM (inactive) | GI50 (DU-145): 22.2 µM (inactive) | GI50 (EKVX): 37.9 µM (inactive) | GI50 (HCC 2998): 15.2 µM (inactive) | GI50 (HCT-116): 21.1 µM (inactive) | GI50 (HCT-15): 19.9 µM | GI50 (HOP-62): 29 µM (inactive) | GI50 (HOP-92): 19.4 µM (inactive) | GI50 (HT-29): 18.2 µM (inactive) | GI50 (Hs-578T): 27.7 µM (inactive) | GI50 (IGROV-1): 32 µM (inactive) | GI50 (K562): 47.6 µM (inactive) | GI50 (KM12): 26.4 µM (inactive) | GI50 (LOX IMVI): 10.7 µM (inactive) | GI50 (M14): 24.3 µM (inactive) | GI50 (MCF7): 17.8 µM (inactive) | GI50 (MDA-MB-231): 36.5 µM (inactive) | GI50 (MDA-MB-435): 44.1 µM (inactive) | GI50 (MDA-N): 28.6 µM (inactive) | GI50 (MOLT-4): 39.4 µM (inactive) | GI50 (Malme-3M): 20.1 µM (inactive) | GI50 (NCI-H226): 92.7 µM (inactive) | GI50 (NCI-H23): 24.3 µM (inactive) | GI50 (NCI-H460): 8.97 µM (inactive) | GI50 (NCI-H522): 17.3 µM (inactive) | GI50 (NCI/ADR-RES): 28.9 µM (inactive) | GI50 (OVCAR-3): 33.7 µM (inactive) | GI50 (OVCAR-4): 39.4 µM (inactive) | GI50 (OVCAR-5): 38 µM (inactive) | GI50 (OVCAR-8): 27.4 µM (inactive) | GI50 (PC-3): 25.1 µM (inactive) | GI50 (RPMI-8226): 49.1 µM (inactive) | GI50 (RXF 393): 16.3 µM (inactive) | GI50 (SF-268): 28.3 µM (inactive) | GI50 (SF-295): 15.8 µM (inactive) | GI50 (SK-MEL-28): 57.7 µM (inactive) | GI50 (SK-MEL-2): 15.2 µM (inactive) | GI50 (SK-MEL-5): 29.6 µM (inactive) | GI50 (SK-OV-3): 41.5 µM (inactive) | GI50 (SN12C): 27.2 µM (inactive) | GI50 (SNB-19): 68.9 µM (inactive) | GI50 (SNB-75): 26.5 µM (inactive) | GI50 (SR): 23.7 µM (inactive) | GI50 (SW-620): 19.8 µM (inactive) | GI50 (T47D): 25.2 µM (inactive) | GI50 (TK-10): 27.9 µM (inactive) | GI50 (U-251): 25.2 µM (inactive) | GI50 (UACC-257): 33.7 µM (inactive) | GI50 (UACC-62): 15.4 µM (inactive) | GI50 (UO-31): 22 µM (inactive)

NS(=O)(=O)c1nnc(/N=C(/CCC(=O)O)C(=O)O)s1
GI50 (786-0): > 100 µM (inactive) | GI50 (A498): > 100 µM (inactive) | GI50 (A549): > 100 µM (inactive) | GI50 (ACHN): > 100 µM (inactive) | GI50 (BT-549): > 100 µM (inactive) | GI50 (CAKI-1): > 100 µM (inactive) | GI50 (CCRF-CEM): > 100 µM (inactive) | GI50 (COLO 205): > 100 µM (inactive) | GI50 (DU-145): > 100 µM (inactive) | GI50 (EKVX): > 100 µM (inactive) | GI50 (HCC 2998): > 100 µM (inactive) | GI50 (HCT-116): > 100 µM (inactive) | GI50 (HCT-15): > 100 µM | GI50 (HL-60): > 100 µM (inactive) | GI50 (HOP-62): > 100 µM (inactive) | GI50 (HOP-92): > 100 µM (inactive) | GI50 (HT-29): > 100 µM (inactive) | GI50 (Hs-578T): > 100 µM (inactive) | GI50 (IGROV-1): > 100 µM (inactive) | GI50 (K562): > 100 µM (inactive) | GI50 (KM12): 20.5 µM (inactive) | GI50 (LOX IMVI): > 100 µM (inactive) | GI50 (M14): > 100 µM (inactive) | GI50 (MCF7): > 100 µM (inactive) | GI50 (MDA-MB-231): > 100 µM (inactive) | GI50 (MDA-MB-435): > 100 µM (inactive) | GI50 (MDA-N): > 100 µM (inactive) | GI50 (MOLT-4): > 100 µM (inactive) | GI50 (Malme-3M): 41.3 µM (inactive) | GI50 (NCI-H226): > 100 µM (inactive) | GI50 (NCI-H23): > 100 µM (inactive) | GI50 (NCI-H460): > 100 µM (inactive) | GI50 (NCI-H522): > 100 µM (inactive) | GI50 (NCI/ADR-RES): > 100 µM (inactive) | GI50 (OVCAR-3): > 100 µM (inactive) | GI50 (OVCAR-4): > 100 µM (inactive) | GI50 (OVCAR-5): > 100 µM (inactive) | GI50 (OVCAR-8): > 100 µM (inactive) | GI50 (PC-3): > 100 µM (inactive) | GI50 (RPMI-8226): > 100 µM (inactive) | GI50 (SF-295): > 100 µM (inactive) | GI50 (SF-539): > 100 µM (inactive) | GI50 (SK-MEL-28): > 100 µM (inactive) | GI50 (SK-MEL-2): > 100 µM (inactive) | GI50 (SK-MEL-5): > 100 µM (inactive) | GI50 (SK-OV-3): > 100 µM (inactive) | GI50 (SN12C): > 100 µM (inactive) | GI50 (SNB-19): > 100 µM (inactive) | GI50 (SNB-75): > 100 µM (inactive) | GI50 (SR): > 100 µM (inactive) | GI50 (SW-620): > 100 µM (inactive) | GI50 (T47D): > 100 µM (inactive) | GI50 (TK-10): > 100 µM (inactive) | GI50 (U-251): > 100 µM (inactive) | GI50 (UACC-257): > 100 µM (inactive) | GI50 (UACC-62): > 100 µM (inactive) | GI50 (UO-31): > 100 µM (inactive)
